Tests used:
Assay in all cases: relative viability (nuclei count vs DMSO), 5 days (fraction); higher = more cells survive
AZ628 + Pemetrexed = compound: CC1=C(C=C(C=C1)NC(=O)C2=CC(=CC=C2)C(C)(C)C#N)NC3=CC4=C(C=C3)N=CN(C4=O)C [AZ628] + Nc1nc2[nH]cc(CCc3ccc(C(=O)N[C@@H](CCC(=O)O)C(=O)O)cc3)c2c(=O)[nH]1 [Pemetrexed] (partner 0.2 µM)
Outline: (§1)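 Five library-drug doses in √10 steps were combined with a fixed anchor-drug dose, or a single drug was given alone, by pin tool to lung cancer cell lines in 1536-well plates the day after seeding. Nuclei were stained and counted after 5 days. Relative viability is the nuclei count in treated wells over that in vehicle wells, taken as the median of duplicate plates.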

Darinaparsin + Olaparib = compound: C[As](C)SC[C@H](NC(=O)CC[C@H](N)C(=O)O)C(=O)NCC(=O)O [Darinaparsin] + O=C(c1cc(Cc2n[nH]c(=O)c3ccccc23)ccc1F)N1CCN(C(=O)C2CC2)CC1 [Olaparib] (partner 8 µM)
Outline: as §1

[1] = compound: C[As](C)SC[C@H](NC(=O)CC[C@H](N)C(=O)O)C(=O)NCC(=O)O [Darinaparsin] + O=C(CCCCCCC(=O)Nc1ccccc1)NO [Vorinostat] (partner 1 µM)
Outline: as §1

QS11 + Foretinib = compound: C1CC2=C(C1)C=C(C=C2)OC3=NC(=C4C(=N3)N(C=N4)CC5=CC=C(C=C5)C6=CC=CC=C6)N[C@@H](CC7=CC=CC=C7)CO [QS11] + COc1cc2c(Oc3ccc(NC(=O)C4(C(=O)Nc5ccc(F)cc5)CC4)cc3F)ccnc2cc1OCCCN1CCOCC1 [Foretinib] (partner 0.25 µM)
Outline: as §1

## LCLC-97TM1
AZ628 + Pemetrexed; first compound 0.08 µM
  relative viability: 0.246
AZ628 + Pemetrexed; first compound 0.253 µM
  relative viability: 0.255
AZ628 + Pemetrexed; first compound 0.8 µM
  relative viability: 0.238
AZ628 + Pemetrexed; first compound 2.53 µM
  relative viability: 0.229
AZ628 + Pemetrexed; first compound 8 µM
  relative viability: 0.121
Darinaparsin + Olaparib; first compound 0.08 µM
  relative viability: 0.599
Darinaparsin + Olaparib; first compound 0.8 µM
  relative viability: 0.303
Darinaparsin + Olaparib; first compound 2.53 µM
  relative viability: 0.404
Darinaparsin + Olaparib; first compound 8 µM
  relative viability: 0.612
[1]; first compound 0.08 µM
  relative viability: 0.882
[1]; first compound 0.8 µM
  relative viability: 0.862
[1]; first compound 2.53 µM
  relative viability: 0.744
[1]; first compound 8 µM
  relative viability: 0.895
QS11 + Foretinib; first compound 0.08 µM
  relative viability: 0.957
QS11 + Foretinib; first compound 0.253 µM
  relative viability: 0.949
QS11 + Foretinib; first compound 2.53 µM
  relative viability: 0.934
QS11 + Foretinib; first compound 8 µM
  relative viability: 0.931

— the supplement of paper PMC10307832
